Reference: patent publication US8853258B2, “C-linked hydroxamic acid derivatives useful as antibacterial agents” (Pfizer Inc., priority 2009, dated 2014)
pIC50: −log10 of the molar value. In brackets after ≈: the same amount, converted by molar mass. Like-named read-outs stand apart in the source and are kept apart here.

Legend:
[1] = system: Klebsiella pneumoniae: Ciprofloxacin-resistant isolate, ESBL, clinical isolate (KP-3700); assay: MIC determination (CLSI), KP-3700; assay type: cell-based
Summary of the method: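 MIC measured by broth dilution according to CLSI M7-A7 and M100-S18 standards. Test organism was a ciprofloxacin-resistant, ESBL-expressing clinical isolate.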

[2] = system: Pseudomonas aeruginosa UI-18: Wild-type (PA-7); assay: MIC determination (CLSI), PA-7; assay type: cell-based; settings: for MIC: Pseudomonas aeruginosa
Summary of the method: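 MIC by dilution method per CLSI M7-A7 and M100-S18 guidelines. Strain: wild-type Pseudomonas aeruginosa UI-18.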

[3] = target: Pseudomonas aeruginosa LpxC enzyme (Pseudomonas aeruginosa (strain ATCC 15692 / DSM 22644 / CIP 104116 / JCM 14847 / LMG 12228 / 1C / PRS 101 / PAO1), UniProt P47205); assay: IC50 Assay, LpxC Enzyme from P. aeruginosa (PA LpxC Enzyme IC50); assay type: biochemical
Summary of the method: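 Reaction run 1 h then stopped with 1N HCl. Conversion measured by RapidFire high-throughput mass spectrometry. IC50 derived from percent conversion relative to a no-enzyme control.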

[4] = system: Acinetobacter baumanii/haemolyticus: Multidrug-resistant clinical isolate (AB-3167); assay: MIC determination (CLSI), AB-3167; assay type: cell-based; settings: for MIC: Acinetobacter baumannii
Summary of the method: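 Multidrug-resistant clinical isolate AB-3167 (A. baumannii/haemolyticus) tested for minimum inhibitory concentration following CLSI dilution susceptibility standards M7-A7 and M100-S18.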

[5] = system: Escherichia coli EC-1: VOGEL, mouse virulent; assay: MIC determination (CLSI), EC-1; assay type: cell-based; settings: for MIC: Escherichia coli
Summary of the method: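 E. coli Vogel, a mouse-virulent strain (EC-1), was tested. MICs were set by dilution susceptibility testing per CLSI standards M7-A7/M100-S18.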

[6] = Pseudomonas aeruginosa UI-18 (PA-7)
[7] = P. aeruginosa LpxC enzyme, read-out: PA LpxC enzyeme IC50
[8] = Acinetobacter baumanii/haemolyticus AB-3167
[9] = Pseudomonas aeruginosa UI-18 wild-type PA-7
[10] = Acinetobacter baumanii/haemolyticus multidrug-resistant clinical isolate AB-3167
[11] = Escherichia coli EC-1 VOGEL, mouse virulent
[12] = Table 3, read-out: PA LpxC enzyeme IC^50
[13] = Table 1, read-out: PA LpxC enzyeme IC50
[14] = Table 1, MIC, read-out: PA-7 (MIC)
[15] = Table 1, MIC, read-out: AB-3167 (MIC)

Row | Compound | KP-3700 MIC [1] | pIC50 [3, 7] | PA-7 MIC [2, 9] | AB-3167 MIC [4, 10] | EC-1 MIC [5, 11] | other results
1 | C[C@@](CCc1ccc(-c2ccc(OCC(=O)N3CCC(O)CC3)cc2)cc1)(C(=O)NO)S(C)(=O)=O [Example 221] | ≧64 mg/L | 9.27 |  |  |  | PA-7 MIC [2, 6]: 16 µg/mL; AB-3167 MIC [4, 8]: ≧64 mg/L; EC-1 MIC ([5]; Escherichia coli EC-1): 16 µg/mL
2 | CC(CCc1ccc(-c2ccc(C(=O)CO)cc2)cc1)(C(=O)NO)S(C)(=O)=O (stereo not shown) [Example 169] | 4 µg/mL | 9.70 | 1 µg/mL | 32 µg/mL | 2 µg/mL | 
3 | CC(CCc1ccc(-c2ccc(NS(C)(=O)=O)cc2)c(F)c1)(C(=O)NO)S(C)(=O)=O (stereo not shown) [Example 209] | 32 µg/mL | 8.69 |  |  |  | PA-7 MIC [2, 6]: 8 µg/mL; AB-3167 MIC [4, 8]: ≧64 mg/L; EC-1 MIC ([5]; Escherichia coli EC-1): 8 µg/mL
4 | CC(CCc1ccc(-c2cccc(F)c2)cc1)(C(=O)NO)S(C)(=O)=O (stereo not shown) [Example 42] | 4 µg/mL | 9.47 | 0.5 µg/mL | ≧64 mg/L | 2 µg/mL | 
5 | CC(CCc1ccc(-c2cnc3ccccc3c2)cc1F)(C(=O)NO)S(C)(=O)=O (stereo not shown) [Example 200] | 8 µg/mL | 9.33 | 4 µg/mL | ≧64 mg/L | 1 µg/mL | 
6 | CC(CCc1ccc(-c2cccc(F)c2F)cc1)(C(=O)NO)S(C)(=O)=O (stereo not shown) [Example 62] | 16 µg/mL | 9.73 | 0.25 µg/mL | 16 µg/mL | 0.5 µg/mL | 
7 | CC(CCc1ccc(OCc2nc(-c3cccc(Cl)c3)no2)cc1)(C(=O)NO)S(C)(=O)=O (stereo not shown) [Example 298, 4-(4-{[3-(3-chlorophenyl)-1,2,4-oxadiazol-5-yl]methoxy}phenyl)-N-hydroxy-2-methyl-2-(methylsulfonyl)butanamide] | 32 µg/mL |  |  |  |  | MIC ([2]; Table 3, read-out: PA-7 MIC): 32 µg/mL (≈ 66.7 µM); pIC50 [3, 12]: 8.78; MIC ([4]; Table 3, read-out: AB-3167 MIC): 16 µg/mL (≈ 33.3 µM); MIC ([5]; read-out: EC-1 MIC): 16 µg/mL (≈ 33.3 µM)
8 | CC(CCc1ccc(-c2ccc(OCCCCO)cc2)cc1)(C(=O)NO)S(C)(=O)=O (stereo not shown) [Example 136] | 1 µg/mL | 9.69 | 1 µg/mL | ≧64 mg/L | 0.125 µg/mL | 
9 | CC(CCc1ccc(-c2ccc(CCCO)cc2)cc1)(C(=O)NO)S(C)(=O)=O (stereo not shown) [Example 47] | 2 µg/mL | 9.88 | 1 µg/mL | ≧64 mg/L | 0.5 µg/mL | 
10 | C[C@@](CCc1ccc(-c2ccc(OP(=O)(O)O)cc2)cc1)(C(=O)NO)S(C)(=O)=O [Example 6, 4′-[(3R)-4-(Hydroxyamino)-3-methyl-3-(methylsulfonyl)-4-oxobutyl]biphenyl-4-yl dihydrogen phosphate] |  |  |  |  |  | KP-3700 MIC ([1]; Table 1, MIC): ≧64 mg/L; MIC ([2]; read-out: PA-7 (MIC)): ≥ 64 µg/mL; pIC50 [3, 13]: 7.06; MIC ([4]; read-out: AB-3167 (MIC)): ≥ 64 µg/mL; MIC ([5]; read-out: EC-1: (MIC)): ≥ 64 µg/mL
11 | CC(CCc1ccc(OCc2nc(C3CCC3)no2)cc1)(C(=O)NO)S(C)(=O)=O (stereo not shown) [Example 300, 4-{4-[(3-cyclobutyl-1,2,4-oxadiazol-5-yl)methoxy]phenyl}-N-hydroxy-2-methyl-2-(methylsulfonyl)butanamide] | 32 µg/mL |  |  |  |  | MIC ([2]; Table 3, read-out: PA-7 MIC): 32 µg/mL (≈ 75.6 µM); pIC50 [3, 12]: 8.12; MIC ([4]; Table 3, read-out: AB-3167 MIC): ≥ 64 µg/mL; MIC ([5]; read-out: EC-1 MIC): 16 µg/mL (≈ 37.8 µM)
12 | COc1cccc(-c2ccc(CC[C@](C)(C(=O)NO)S(C)(=O)=O)cc2)c1 [Example 170] | ≧64 mg/L | 7.27 | ≧64 mg/L | 16 µg/mL | ≧64 mg/L | 
13 | CC(CCc1ccc(OCc2cccc(F)c2F)cc1)(C(=O)NO)S(C)(=O)=O (stereo not shown) [Example 247, 4-{4-[(2,3-difluorobenzyl)oxy]phenyl}-N-hydroxy-2-methyl-2-(methylsulfonyl)butanamide] | 16 µg/mL |  |  |  |  | MIC ([2]; Table 3, read-out: PA-7 MIC): 2 µg/mL (≈ 4.84 µM); pIC50 [3, 12]: 9.49; MIC ([4]; Table 3, read-out: AB-3167 MIC): 16 µg/mL (≈ 38.7 µM); MIC ([5]; read-out: EC-1 MIC): 2 µg/mL (≈ 4.84 µM)
14 | CC(CCc1ccc(-c2ccc3c(c2)OCO3)cc1)(C(=O)NO)S(C)(=O)=O (stereo not shown) [Example 176] | 2 µg/mL | 10.52 | 0.5 µg/mL | 16 µg/mL | 0.5 µg/mL | 
15 | CC(CCc1ccc(-c2ccccc2)cc1F)(C(=O)NO)S(C)(=O)=O (stereo not shown) [Example 2, 4-(3-Fluorobiphenyl-4-yl)-N-hydroxy-2-methyl-2-(methylsulfonyl)butanamide] | 4 µg/mL |  |  |  |  | MIC [2, 14]: 1 µg/mL (≈ 2.74 µM); pIC50 [3, 13]: 9.59; MIC [4, 15]: 16 µg/mL (≈ 43.8 µM); MIC ([5]; read-out: EC-1: (MIC)): 1 µg/mL (≈ 2.74 µM)
16 | C[C@@](CCc1ccc(-c2cnc3ccccc3c2)cc1)(C(=O)NO)S(C)(=O)=O [Example 201] | 8 µg/mL | 9.62 |  |  |  | PA-7 MIC [2, 6]: 2 µg/mL; AB-3167 MIC [4, 8]: ≧64 mg/L; EC-1 MIC ([5]; Escherichia coli EC-1): 1 µg/mL
17 | CC(CCc1ccc(-c2cccc(C#N)c2)cc1)(C(=O)NO)S(C)(=O)=O (stereo not shown) [Example 64] | 8 µg/mL | 9.13 | 2 µg/mL | ≧64 mg/L | 4 µg/mL | 
18 | C[C@@](CCc1ccc(-c2ccc(C#N)cc2)cc1)(C(=O)NO)S(C)(=O)=O [Example 107] | 1 µg/mL | 9.87 | 0.25 µg/mL | 16 µg/mL | 0.25 µg/mL | 
19 | CC(CCc1ccc(OCc2nc(-c3ccccc3)no2)cc1)(C(=O)NO)S(C)(=O)=O (stereo not shown) [Example 308, N-hydroxy-2-methyl-2-(methylsulfonyl)-4-{4-[(3-phenyl-1,2,4-oxadiazol-5-yl)methoxy]phenyl}butanamide] | 16 µg/mL |  |  |  |  | MIC ([2]; Table 3, read-out: PA-7 MIC): 32 µg/mL (≈ 71.8 µM); pIC50 [3, 12]: 8.59; MIC ([4]; Table 3, read-out: AB-3167 MIC): ≥ 64 µg/mL; MIC ([5]; read-out: EC-1 MIC): 4 µg/mL (≈ 8.98 µM)
20 | CC(CCc1ccc(-c2ccc3c(c2)C(=O)NC3)cc1F)(C(=O)NO)S(C)(=O)=O (stereo not shown) [Example 196] | 16 µg/mL | 9.20 | 4 µg/mL | ≧64 mg/L | 4 µg/mL | 
21 | CC(CCc1ccc(OCc2ccccn2)cc1)(C(=O)NO)S(C)(=O)=O (racemic) [Example 16, (+/−)-N-Hydroxy-2-methyl-2-(methylsulfonyl)-4-[4-(pyridin-2-ylmethoxy)phenyl]butanamide] | ≧64 mg/L |  |  |  |  | MIC [2, 14]: 16 µg/mL (≈ 42.3 µM); pIC50 ([3]; PA LpxC enzyeme IC50, Table 1): 8.30; MIC [4, 15]: ≥ 64 µg/mL; MIC ([5]; read-out: EC-1: (MIC)): ≥ 64 µg/mL
22 | CC(CCc1ccc(-c2ccc(C#N)cc2)cc1F)(C(=O)NO)S(C)(=O)=O (stereo not shown) [Example 168] | 2 µg/mL | 9.37 | 1 µg/mL | ≧64 mg/L | 1 µg/mL | 
23 | Cc1cccc(Cc2noc(COc3ccc(CCC(C)(C(=O)NO)S(C)(=O)=O)cc3)n2)c1 (stereo not shown) [Example 289, N-hydroxy-2-methyl-4-(4-{[3-(3-methylbenzyl)-1,2,4-oxadiazol-5-yl]methoxy}phenyl)-2-(methylsulfonyl)butanamide] | ≧64 mg/L |  |  |  |  | MIC ([2]; Table 3, read-out: PA-7 MIC): ≥ 64 µg/mL; pIC50 [3, 12]: 7.98; MIC ([4]; Table 3, read-out: AB-3167 MIC): ≥ 64 µg/mL; MIC ([5]; read-out: EC-1 MIC): 32 µg/mL (≈ 67.6 µM)
24 | CC(CCc1ccc(C2=CCCC2)cc1)(C(=O)NO)S(C)(=O)=O (stereo not shown) [Example 227] | ≧64 mg/L | 7.94 |  |  |  | PA-7 MIC [2, 6]: 16 µg/mL; AB-3167 MIC [4, 8]: ≧64 mg/L; EC-1 MIC ([5]; Escherichia coli EC-1): ≧64 mg/L
25 | C[C@@](CCc1ccc(-c2ccc(C(=O)CO)cc2)cc1)(C(=O)NO)S(C)(=O)=O [Example 186] | 4 µg/mL | 9.62 | 1 µg/mL | ≧64 mg/L | 2 µg/mL | 
26 | CC(CCc1ccc(-c2ccc(F)cc2)c(F)c1)(C(=O)NO)S(C)(=O)=O (stereo not shown) [Example 167] | 4 µg/mL | 9.63 | 0.5 µg/mL | 8 µg/mL | 1 µg/mL | 
27 | CCCCCc1noc(COc2ccc(CCC(C)(C(=O)NO)S(C)(=O)=O)cc2)n1 (stereo not shown) [Example 295, N-hydroxy-2-methyl-2-(methylsulfonyl)-4-{4-[(3-pentyl-1,2,4-oxadiazol-5-yl)methoxy]phenyl}butanamide] | ≧64 mg/L |  |  |  |  | MIC ([2]; Table 3, read-out: PA-7 MIC): ≥ 64 µg/mL; pIC50 [3, 12]: 7.90; MIC ([4]; Table 3, read-out: AB-3167 MIC): ≥ 64 µg/mL; MIC ([5]; read-out: EC-1 MIC): 32 µg/mL (≈ 72.8 µM)
28 | COc1cc(CCC(C)(C(=O)NO)S(C)(=O)=O)ccc1-c1ccccc1 (stereo not shown) [Example 171] | 16 µg/mL | 7.84 | 32 µg/mL | ≧64 mg/L | 4 µg/mL | 
29 | CC(CCc1ccc(-c2ccc3ncccc3c2)c(F)c1)(C(=O)NO)S(C)(=O)=O (stereo not shown) [Example 195] | 4 µg/mL | 9.13 | 2 µg/mL | 32 µg/mL | 1 µg/mL | 
